# Columns and labels:
# Assay type in all cases: cell-based
# [1] = tested on: Chinese hamster ovary (CHO) cells; assay: In Vitro Chromosome Aberration Screening Assay; settings: 0.272 to 272 μg/ml; absence and presence of S9
# Description: 6-Furfurylamino-9-(2-tetrahydropyranyl)purine was tested in the chromosome aberration screening assay using Chinese hamster ovary (CHO) cells in both the absence and presence of an Acroclor-induced S9 activation system to evaluate its clastogenic potential. DMSO was used as the solvent and the dose rate ranged from 0.272 to 272 μg/ml.
# mouse fibroblasts NIH3T3 = assay: in vitro cytotoxic activity, Calcein AM microtiter assay; settings: NIH3T3, 72 hours, highest concentration 166.7 μM, read-out: GI50 NIH-3T3
# Description: (§1) In vitro cytotoxic activity of several of the 6,9-disubstituted purine derivatives of this invention was determined using a microtiter assay with Calcein AM and a panel of cell lines of different histogenetic and species origin; kinetin was also examined as a control. Because only metabolically active cells cleave Calcein AM (tetraacetoxymethyl ester of calcein), the intracellular concentration of calcein corresponds to the number of vital cells in the culture.
# (§2) The following cell lines were used: human osteosarcoma (HOS); breast carcinoma MCF-7; human myeloid leukemia K-562; and mouse fibroblasts NIH3T3. The cells were maintained in Nunc/Corning 80 cm^2 plastic tissue culture flasks and cultured in cell culture medium (DMEM with 5 g/l glucose, 2 mM glutamine, 100 U/ml penicillin, 100 μg/ml streptomycin, 10% fetal calf serum, and sodium bicarbonate).
# (§3) The cell suspensions were prepared and diluted according to the particular cell type and the expected target cell density (2.500-30.000 cells per well based on cell growth characteristics) were added by pipette (80 μl) into 96/well microtiter plates. Inoculates were allowed a pre-incubation period of 24 hours at 37° C. and 5% CO2 for stabilization. Four-fold dilutions of the intended test concentration were added at time zero in 20 μl aliquots to the microtiter plate wells. The test compounds were generally evaluated at six 4-fold dilutions. The highest well concentration used in the present study was 166.7 μM. All samples were examined in triplicates. Incubations of cells with the tested compounds was for 72 hours at 37° C., in 5% CO2 atmosphere and 100% humidity. At the end of the incubation period, Calcein AM was added to a final concentration of 1 μg/ml incubated for 1 hour. Fluorescence intensity (FI) was measured with a Labsystem FIA Reader Fluoroscan Ascent (UK). The cell survival (GI50) was calculated using the following equation: GI50=([…])/(mean FIcontrol well−mean FIblank)×100%. The GI50 value, the drug concentration lethal to 50% of the cells, was calculated from the obtained dose response curves.
# breast carcinoma MCF-7 = assay: as above; settings: Homo sapiens, MCF7; 72 hours; highest concentration 166.7 μM
# Description: as §1, §2, §3
# human osteosarcoma (HOS) = assay: as above; settings: 72 hours, highest concentration 166.7 μM
# Description: as §1, §2, §3
# [2] = tested on: human myeloid leukemia K-562; assay: as above; settings: K562, 72 hours, highest concentration 166.7 μM
# Description: as §1, §2, §3
# [3] = tested on: senescent human skin fibroblasts; assay: treatment of senescent human skin fibroblasts (cell number, actin staining, morphology)
# Description: The effect of 6-furfurylamino-9-(2-tetrahydropyranyl)purine on senescent cells was also examined. An equal number of senescent cells were seeded in separate flasks and then treated with different concentrations of 6-furfurylamino-9-(2-tetrahydropyranyl)purine (0 to 400 μM). Cell numbers were determined after 7 and 14 days of treatment using a Coulter counter after trypsinisation and resuspension of the cells.
# Late passage senescent cells with a life span of more than 95% were also treated with different concentrations of 6-furfurylamino-9-(2-tetrahydropyranyl)purine (0 to 200 μM) to assess age-related changes. The actin staining patterns were examined after three days. […] Less polymerized and diffused patterns of actin staining are generally associated with youthful characteristics of human fibroblasts. Thus, 6-furfurylamino-9-(2-tetrahydropyranyl)purine appears to revert some of the age-related changes in actin organization in senescent cells.
# Senescent human skin fibroblasts were also treated with 6-furfurylamino-9-(2-tetrahydropyranyl)purine (0 to 400 μM) and evaluated for reversion of age-related changes. There were significant differences in the appearance of the cells after 7 and 30 days of treatment. […] Even at higher concentrations (200 and 400 μM), the 6-furfurylamino-9-(2-tetrahydropyranyl)purine-treated cells appeared to be smaller and have less intracellular debris as compared untreated cells.
# [4] = tested on: Human forskin fibroblasts (cell line BJ); assay: in vitro cytotoxic activity, MTT assay; settings: 72 hours; BJ fibroblasts at middle passage
# Description: In vitro cytotoxic activity of several of the 6,9-disubstituted purine derivatives of this invention against human diploid fibroblasts was determined by standard MTT assay optimized for 96-well plates. The assay is based on spectrofotometric measurement of the product of metabolic conversion of MTT by mitochondria of living cells.
# Human forskin fibroblasts (cell line BJ) at middle passage were maintained in 75 cm^2 plastic tissue culture flasks and cultured in cell culture medium (DMEM with 5 g/l glucose, 2 mM glutamine, 100 U/ml penicillin, 100 μg/ml streptomycin, 10% fetal calf serum, and sodium bicarbonate).
# About 5,000 cells were seeded per well of the 96-well plate. After 24 hours the cell culture medium was replaced with the cell culture medium containing a test compound. The test compounds were evaluated at six 2-fold dilutions. The highest concentration used in the present study was usually 200 μM. In the case of compounds with limited solubility in the culture medium the highest concentration was adjusted. Every test compound was examined in five replicates. Cells with the test compounds were incubated for 72 hours at 37° C. in 5% CO2 atmosphere and 100% humidity. At the end of the incubation period, the culture medium was replaced with the cell culture medium containing MTT (0.5 mg/ml) and cells were incubated for another 3 hours. The formazan formed was solubilized by DMSO and absorbance at 570 nm was measured. Ability of the tested compounds to inhibit MTT reducing activity of the cells was calculated as IC=(Acompound exposed well−mean Ablank)/(mean Acontrol well−meanAblank)×100%. IC10, the drug concentration causing 10% decrease in MTT reducing activity, was calculated from the obtained dose response curves.
compound,measurement,setting,value
c1coc(CNc2ncnc3c2ncn3C2CCCCO2)c1 (centres unmarked) [6-furfurylamino-9-(2-tetrahydropyranyl)purine],induction of structural and numerical chromosome aberrations,[1],negative for the induction of structural and numerical chromosome aberrations
same,GI50,mouse fibroblasts NIH3T3,> 167 µM
same,GI50,breast carcinoma MCF-7,> 167 µM
same,GI50,human osteosarcoma (HOS),> 167 µM
same,GI50,[2],> 167 µM
same,cell number of senescent cells,"[3]; 0 to 400 μM, after 7 days",No negative effects
same,appearance of the cells (reversion of age-related changes),"[3]; 0 to 400 μM, after 30 days of treatment",younger looking in terms of becoming thinner and arranged in arrays
same,survival of senescent cells,"[3]; 200 μM or more, after 14 days",slight negative effect on the survival of senescent cells
same,actin staining pattern,"[3]; late passage senescent cells, 0 to 200 μM, after three days",changed the actin staining pattern from a highly polymerized pattern to a less polymerized filament pattern
same,cell number of senescent cells,"[3]; lower concentrations (below 200 μM), after 14 days",no negative effects
same,IC10 (concentration causing 10% decrease in MTT reducing activity),[4],>200 µM
